Results on 12 compounds are retold here after patent US6534516B1, “Androgen receptor modulator compounds and methods” (Ligand Pharmaceuticals Incorporated, priority 1996, dated 2003).

SMILES strings stand for the structures. Where two headings read alike, the source gives them in different places.

The target in one assay is T1, human AR (Homo sapiens, UniProt P10275).
T1 construct: expressed in transfected cells; host or cells: CV-1 cells (African green monkey kidney fibroblasts)
T1 sequence (P10275 1-920): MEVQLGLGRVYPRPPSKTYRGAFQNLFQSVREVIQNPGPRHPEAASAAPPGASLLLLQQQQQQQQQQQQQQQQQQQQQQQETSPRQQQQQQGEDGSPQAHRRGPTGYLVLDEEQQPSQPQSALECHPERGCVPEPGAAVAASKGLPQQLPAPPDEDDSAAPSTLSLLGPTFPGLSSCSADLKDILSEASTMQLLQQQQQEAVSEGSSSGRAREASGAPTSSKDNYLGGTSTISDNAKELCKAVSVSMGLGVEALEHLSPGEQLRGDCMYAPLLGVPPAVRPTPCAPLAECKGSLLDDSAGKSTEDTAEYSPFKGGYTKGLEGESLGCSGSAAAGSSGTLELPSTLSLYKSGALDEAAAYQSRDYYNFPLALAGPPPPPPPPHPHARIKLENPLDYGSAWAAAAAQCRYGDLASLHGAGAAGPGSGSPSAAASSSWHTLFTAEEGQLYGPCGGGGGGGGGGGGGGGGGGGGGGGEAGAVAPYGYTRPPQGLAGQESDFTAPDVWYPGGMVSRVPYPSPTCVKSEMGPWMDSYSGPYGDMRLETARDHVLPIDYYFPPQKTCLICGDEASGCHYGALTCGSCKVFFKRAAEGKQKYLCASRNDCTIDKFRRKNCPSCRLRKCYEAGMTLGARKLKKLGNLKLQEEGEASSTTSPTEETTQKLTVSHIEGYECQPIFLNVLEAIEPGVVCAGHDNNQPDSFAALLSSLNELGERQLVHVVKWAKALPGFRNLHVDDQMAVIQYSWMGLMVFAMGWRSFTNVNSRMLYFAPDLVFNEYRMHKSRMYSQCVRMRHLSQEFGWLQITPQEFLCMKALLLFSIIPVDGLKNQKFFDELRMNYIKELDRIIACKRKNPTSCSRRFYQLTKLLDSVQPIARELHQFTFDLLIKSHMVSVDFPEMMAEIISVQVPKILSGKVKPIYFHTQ
The experiment in a line: cell-based. It is filed as cell-based. Particulars: for EC50: read-out: AR Agonist CV-1 Cells Potency. An excerpt:
The co-transfection assay provides a method for identifying functional agonists and partial agonists which mimic, or antagonists which inhibit, the effect of native hormones, and quantifying their activity for responsive IR proteins. In this regard, the co-transfection assay mimics an in vivo system in the laboratory. Importantly, activity in the co-transfection assay correlates very well with known in vivo activity, such that the co-transfection assay functions as a qualitative and quantitative predictor of a tested compounds in vivo pharmacology. See, e.g., T. Berger et al. 41 J. Steroid Biochem. Molec.
CV-1 cells (African green monkey kidney fibroblasts) were cultured in the presence of Dulbecco's Modified Eagle Medium (DMEM) supplemented with 10% charcoal resin-stripped fetal bovine serum then transferred to 96-well microtiter plates one day prior to transfection.
The reporter plasmid, MTV-LUC, contains the cDNA for firefly luciferase (LUC) under control of the mouse mammary tumor virus (MTV) long terminal repeat, a conditional promoter containing an androgen response element. See e.g., Berger et al. supra. In addition, pRS-β-Gal, coding for constitutive expression of E. coli β-galactosidase (β-Gal), was included as an internal control for evaluation of transfection efficiency and compound toxicity.
Three to four replicates were used for each sample.
After 40 hours, the cells were washed with PBS, lysed with a Triton X-100-based buffer and assayed for LUC and β-Gal activities using a luminometer or spectrophotometer, respectively. For each replicate, the normalized response (NR) was calculated as:
where β-Gal rate=β-Gal•1×10^−5/β-Gal incubation time.

Assay [1] relates to immature castrated male rat. Briefly: Immature castrated male rat model with testosterone silastic implant, ventral prostate and seminal vesicle weights. Particulars: for ED50: Rattus norvegicus, 72 h, oral, four-parameter logistic fit, number of experiments in parentheses; for ED50 / Seminal Vesicles weight / Ventral Prostate weight: 3 days. The format is in vivo. The text has this: The activity of selected compounds of the present invention as AR antagonists was *~ investigated in an immature castrated male rat model. A recognized test of the antiandrogen activity of a given compound, as described in L. G. Hershberger et al., 83 Proc. Soc. Exptl. […] Similar approaches have been used in the rat and in hamsters. […] Dermatol.
The basis of this assay is the fact that male sexual accessory organs, such as the prostate and seminal vesicles, play an important role in reproductive function. […] See F. Labrie et al., 16 Clin. Invest. […] However, this is not a major pathway since, in both animals and humans, castration without concomitant adrenalectomy leads to almost complete involution of the prostate and seminal vesicles. […] See M. C. […] Since the male sex organs are the tissues most responsive to modulation by androgen activity, this model is used to determine the androgen-dependent growth of the sex accessory organs in immature castrated rats.
Immature male rats (50-60 g, 21 day-old Sprague-Dawley, Harlan) were castrated under metofane anesthesia. […] As a negative control, a group of castrated animals received empty 10 mm silastic implants. Animal groups were dosed for 3 days by oral gavage as follows:
At the end of the 3-day treatment, the animals were sacrificed, and the ventral prostates and seminal vesicles were collected and weighed. Organ weight data were normalized to body weight of each animal and expressed as mg/100 g body weight. Results were analyzed by analysis of variance followed by the Dunnett's test. Data were transformed to comply with the normality and variance homogeneity criteria required to utilize the analysis of variance and Dunnett's test. The following data transformations were used for the ventral prostate and seminal vesicle: square root and power 0.7 respectively. Thereafter, the data were fitted to a four-parameter logistic equation and potencies derived from the fitted estimates. The same data transformations were used for the equation-fitting phase of the data analysis.
The gain and loss of sexual organ weights reflect the changes of cell number (DNA content) and cell mass (protein content), depending upon the serum androgen concentrations. […] Therefore, measurement of organ wet weights is sufficient to indicate the bioactivity of androgens and androgen antagonists.

Setting [2] is: antagonist mode, DHT at its EC50, % of maximal inhibition, na = not active.
Where [3] appears, read: read-out: AR Antagonist CV-1 Cells Potency.
The mark [4] stands for this setting: read-out: Potency (ED50) Weighted Average ± SE, Seminal Vesicle Weight.
[5] abbreviates: read-out: Potency (ED50) Weighted Average ± SE, Ventral Prostate Weight.

`CCC1CCN(C=O)c2cc3[nH]c(=O)cc(C(F)(F)F)c3cc21` (racemic) [Compound 121, (R/S)-4-Ethyl-1-formyl-1,2,3,4-tetrahydro-6-(trifluoromethyl)-8-pyridono[5,6-g]quinoline]: at human AR, the “AR Agonist CV-1 Cells Efficacy” value stood at 72 ± 20% and the EC50 is 150 ± 39 nM.
Regarding `Cc1c2c(cc3c(C(F)(F)F)c(F)c(=O)[nH]c13)C(C)CC(C)(C)N2C` (stereo not shown) [Compound 117, 7-Fluoro-1,2,3,4-tetrahydro-1,2,2,4,10-pentamethyl-6-trifluoromethyl-8-pyridono[5,6-g]quinoline], the “AR Antagonist CV-1 Cells Efficacy” value on human AR (setting [2]) is 82 ± 1%. On human AR (setting [3]), the IC50 was determined as 394 ± 75 nM.
Take `CC12CCCN1c1cc3[nH]c(=O)cc(C(F)(F)F)c3cc1CC2` (racemic) [Compound 101, (R/S)-6,7,7a,11-Tetrahydro-7a-methyl-4-trifluoromethyl-2-pyridono[5,6-g]pyrrolidino[1,2-a]quinoline]: at human AR, the “AR Antagonist CV-1 Cells Efficacy” value came out at 86 ± 6% and the IC50 was 325 ± 68 nM.
Turning to `CC1(C)CCc2cc3c(C(F)(F)F)cc(=O)[nH]c3cc2N1` [LG120907, 1,2,3,4-Tetrahydro-2,2-dimethyl-6-trifluoromethyl-8-pyridono[5,6-g]quinoline], the ED50 in assay [1] (setting [4]) is 19.2 ± 2.8 mg/kg; in assay [1] (setting [5]) it was 18.3 ± 4.8 mg/kg. The “Seminal Vesicles weight” value in assay [1] (T implant + 0.1 mg/kg oral) was 32.9 ± 1.2 (5) mg/100 g body weight; in assay [1] (T implant + 1 mg/kg oral), 28.9 ± 1.4 (5) mg/100 g body weight; in assay [1] (T implant + 3 mg/kg oral), 31.7 ± 2.9 (5) mg/100 g body weight; in assay [1] (T implant + 10 mg/kg oral) it was 28.2 ± 1.8 (5) mg/100 g body weight; in assay [1] (T implant + 30 mg/kg oral) it was 16.5 ± 0.8 (5) mg/100 g body weight; in assay [1] (T implant + 100 mg/kg oral), 10.4 ± 1.0 (5) mg/100 g body weight. The “Ventral Prostate weight” value is 78.5 ± 2.0 (5) mg/100 g body weight in assay [1] (T implant + 0.1 mg/kg oral); 57.3 ± 1.8 (5) mg/100 g body weight in assay [1] (T implant + 1 mg/kg oral); 66.4 ± 5.6 (5) mg/100 g body weight in assay [1] (T implant + 3 mg/kg oral); 59.9 ± 2.7 (5) mg/100 g body weight in assay [1] (T implant + 10 mg/kg oral); 47.4 ± 2.9 (5) mg/100 g body weight in assay [1] (T implant + 30 mg/kg oral); 20.2 ± 2.0 (5) mg/100 g body weight in assay [1] (T implant + 100 mg/kg oral).
For the compound `O=c1cc(C(F)(F)F)c2cc3c4c(c2[nH]1)CCCN4CCC3` [Compound 12, 11-(Trifluoromethyl)-9-pyridono[6,5-i]julolidine], on human AR (setting [2]), the “AR Antagonist CV-1 Cells Efficacy” value is reported as 53 ± 16 %. Further, on human AR (setting [3]), the IC50 worked out at 2370 ± 215 nM.
In the same order, the values of `CC1=CC(C)(C)Nc2c1cc1c(C(F)(F)F)c(F)c(=O)[nH]c1c2C` [Compound 114, 7-Fluoro-1,2-dihydro-2,2,4, 10-tetramethyl-6-trifluoromethyl-8-pyridono[5,6-g]quinoline] are 90 ± 1% and 203 ± 66 nM.
Turning to `CCC1CCNc2c1cc1c(C(F)(F)F)cc(=O)[nH]c1c2[N+](=O)[O-]` (racemic) [Compound 124, (R/S)-4-Ethyl-1,2,3,4-tetrahydro-10-nitro-6-(trifluoromethyl)-8-pyridono[5,6-g]quinoline], the “AR Agonist CV-1 Cells Efficacy” value on human AR (agonist mode, percent maximal response relative to reference agonist DHT, na = not active (efficacy < 10 and potency > 10,000)) is 50 ± 1%. In addition, the EC50 at human AR was 202 ± 18 nM.
Regarding `CC(C)C(=O)Nc1ccc([N+](=O)[O-])c(C(F)(F)F)c1` [Flutamide, 2-methyl-N-[4-nitro-3-(trifluoromethyl)phenyl]propanamide], the ED50 in assay [1] (setting [4]) is 3.3 ± 0.4 mg/kg; in assay [1] (setting [5]) it was 4 ± 0.6 mg/kg. Moreover, the “Seminal Vesicles weight” value in assay [1] (T implant + 0.1 mg/kg oral) is reported as 31.1 ± 0.9 (5) mg/100 g body weight; in assay [1] (T implant + 1 mg/kg oral) it was 27.9 ± 2.5 (5) mg/100 g body weight; in assay [1] (T implant + 3 mg/kg oral), 22.7 ± 0.9 (5) mg/100 g body weight; in assay [1] (T implant + 10 mg/kg oral), 12.4 ± 1.8 (5) mg/100 g body weight; in assay [1] (T implant + 30 mg/kg oral), 9.1 ± 1.3 (5) mg/100 g body weight; in assay [1] (T implant + 100 mg/kg oral), 9.9 ± 0.4 (5) mg/100 g body weight. Moreover, the “Ventral Prostate weight” value is on record as 78.9 ± 3.5 (5) mg/100 g body weight in assay [1] (T implant + 0.1 mg/kg oral); 73.1 ± 4.6 (5) mg/100 g body weight in assay [1] (T implant + 1 mg/kg oral); 62.4 ± 3.7 (5) mg/100 g body weight in assay [1] (T implant + 3 mg/kg oral); 43.0 ± 3.6 (5) mg/100 g body weight in assay [1] (T implant + 10 mg/kg oral); 28.4 ± 3.1 (5) mg/100 g body weight in assay [1] (T implant + 30 mg/kg oral); 29.9 ± 1.8 (5) mg/100 g body weight in assay [1] (T implant + 100 mg/kg oral). Also, the “effect on ventral prostate and seminal vesicle weights (in words)” value in assay [1] (Tables 5 and 6) is given as “dose-dependent decrease”.
On human AR, `CC1(C)CCc2cc3c(C(F)(F)F)c([N+](=O)[O-])c(=O)[nH]c3c([N+](=O)[O-])c2N1` [Compound 126, 1,2,3,4-Tetrahydro-2,2-dimethyl-7,10-dinitro-6-(trifluoromethyl)-8-pyridono[5,6-g]quinoline] returned an IC50 of 5240 ± 363 nM. Moreover, the “AR Antagonist CV-1 Cells Efficacy” value on human AR (setting [2]) is reported as 44 ± 2 %.
On to `Cc1c2c(cc3c(C(F)(F)F)c(F)c(=O)n(C)c13)C(C)CC(C)(C)N2` (stereo not shown) [Compound 116, 7-Fluoro-1,2,3,4-tetrahydro-2,2,4,9,10-pentamethyl-6-trifluoromethyl-8-pyridono[5,6-g]quinoline], for which the “AR Antagonist CV-1 Cells Efficacy” value on human AR (setting [2]) is given as 20%. For the same compound, the IC50 at human AR (setting [3]) is 1460 nM.
In the same order, the values of `Cn1c(=O)cc(C(F)(F)F)c2cc3c4c(c21)CCCN4CCC3` [Compound 13, 8-Methyl-11-(trifluoromethyl)-9-pyridono[6,5-i]julolidine] are 84 ± 6% and 726 ± 84 nM.
Consider `CC1(C)CCc2cc3c(C(F)(F)F)cc(=O)[nH]c3c([N+](=O)[O-])c2N1` [Compound 125, 1,2,3,4-Tetrahydro-2,2-dimethyl-10-nitro-6-(trifluoromethyl)-8-pyridono[5,6-g]quinoline], for which, on human AR (setting [2]), the “AR Antagonist CV-1 Cells Efficacy” value is reported as 73%. In addition, the IC50 at human AR (setting [3]) came to 1340 nM.
